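48-hour exposure; five concentrations; linearly interpolated endpoints. The concentration for 50% growth inhibition is given as GI50. TGI is the concentration that stops growth completely.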
How the values were obtained:
Assay in all cases: NCI tumour cell line growth inhibition, 48 h
[1] = system: EKVX NSCLC
[2] = system: SNB-75 CNS
[3] = system: SN12C renal
[4] = system: OVCAR-4 ovarian
[5] = system: SW-620 colon
[6] = system: MOLT-4 leukemia
[7] = system: M14 melanoma
[8] = system: OVCAR-8 ovarian
[9] = system: TK-10 renal
[10] = system: CCRF-CEM leukemia
[11] = system: A549 NSCLC

Structure (SMILES) | TGI [1] [µM] | TGI [2] [µM] | TGI [3] [µM] | TGI [4] [µM] | TGI [5] [µM] | TGI [6] [µM] | TGI [7] [µM] | TGI [8] [µM] | TGI [9] [µM] | TGI [10] [µM] | TGI [11] [µM] | GI50 [2] [µM] | GI50 [3] [µM] | GI50 [4] [µM] | GI50 [6] [µM] | GI50 [7] [µM] | GI50 [8] [µM] | GI50 [9] [µM] | GI50 [11] [µM] | GI50 [10] [µM]
CON(C)C(=O)C(Cc1ccccc1)NC(=O)OCc1ccccc1 (centres undefined) | > 100 | > 100 | > 100 | > 100 | > 100 | > 100 | > 100 | > 100 | > 100 | > 100 | > 100 |  |  |  |  |  |  |  |  | 
O=C(CC1Sc2ccccc2NC1=O)Nc1ccccc1[N+](=O)[O-] (centres undefined) | > 100 | > 100 | > 100 | > 100 | > 100 | > 100 | > 100 | > 100 | > 100 | > 100 | > 100 |  |  |  |  |  |  |  |  | 
CO[C@](C(=O)OC[C@H]1[C@@H](COC(C)=O)[C@@H]2O[C@H]1c1cc3c(cc12)OCO3)(c1ccccc1)C(F)(F)F | 98.8 | 71.5 | > 100 | > 100 | > 100 | > 100 | > 100 |  | > 100 | > 100 | 94.3 |  |  |  |  |  |  |  |  | 
Oc1ccc(NCn2c(=S)sc3ccccc32)cc1 | > 100 | > 100 | > 100 | > 100 | > 100 | > 100 | > 100 | > 100 | > 100 | 92 | > 100 |  |  |  |  |  |  |  |  | 
CCn1cnc2c(=S)nc(N)[nH]c21 | > 100 | > 100 | > 100 |  | > 100 | > 100 | > 100 | > 100 | > 100 | > 100 | > 100 |  |  |  |  |  |  |  |  | 
CCCCCCOc1ccc(/C=N/Nc2cc(C)nc3ccc(Cl)cc23)cc1 |  | 3.43 | 3.18 | 3.18 |  | 4.05 | 3.36 | 4.21 | 3.32 |  | 3.73 | 1.81 | 1.69 | 1.75 | 1.85 | 1.71 | 1.91 | 1.89 | 1.93 | 
CCOC(=O)c1csc(NC(=O)CN2CCCC2)n1 | > 100 | > 100 |  | > 100 | > 100 | > 100 | > 100 | > 100 | > 100 | > 100 | > 100 |  |  |  |  |  |  |  |  | 
CC1NC(=O)C(C)C(c2ccccc2)N(N=O)C1c1ccccc1 (centres undefined) | > 100 | > 79.3 | > 100 | 97.1 | > 100 | > 100 |  | > 100 |  | > 100 | > 100 |  |  |  |  |  |  |  |  | 
COc1cc(/C=C2\CN(S(=O)(=O)c3ccc(C)cc3)C/C(=C\c3cc(CN4CCCC4)c(O)c(OC)c3)C2=O)cc(CN2CCCC2)c1O |  | 2.56 | 2.8 | 2.69 |  | 2.92 | 3.17 | 2.92 | 3.49 | 3.74 |  | 1.1 | 1.24 | 1.34 | 0.379 | 1.55 | 0.71 | 1.86 |  | 0.0535
